Patent US20040258754A1, “Compositions for oral administration of camptothecin and its analogs” (priority 2003, published 2004)
Values after ≈ are worked out from the molar mass of the structure shown. Where two headings read alike, the source gives them in different places.

Tests used:
[1] = Oral administration of topotecan in capsules (control, microgel, microgel + L92); assay type: in vivo, rats
Method: (§1) About 30 mg of topotecan were weighed and mixed with 100 mg of the microgel. The mixture was dissolved in 5 mL of 70% ethanol and incubated for 16 hours at room temperature. Then, the half volume of solvent was evaporated in a stream of nitrogen. About 10 mL of 3% acetic acid were added to the mixture. The final mixture was lyophilized until dryness and loaded into the gelatin capsules.
About 30 mg of topotecan were weighed and loaded in gelatin capsules (3.75 mg/capsule).
The control and formulated topotecan in capsules were orally administered in normal rats at the dose of 15 mg/kg. The blood sample collection, extraction and HPLC analysis were the same as described in example 8.
as §1, with “microgel EGDMA and 30 mg of L92.” for “the microgel.”, “capsules. The topotecan formulation in capsules was orally administered in normal rats at the dose of 15 mg/kg. The blood sample collection, the extraction and HPLC analysis procedures were the same as in example 8.” for “capsules.”

[2] = Oral bioavailability of Pluronic P85 formulated and unformulated topotecan (gavage); assay type: in vivo; conditions: normal rats, oral gavage of solution, 15 mg/kg, plasma
Method: About 15 mg of topotecan were weighed and dissolved in 5 mL of tap water for control, and about 15 mg of topotecan were dissolved in 5 mL of 1% P85 solution in tap water for formulation;
Both topotecan dosing solutions were orally administered by gavage in normal rats at a dose of 15 mg/kg. Three animals were used per each group.
(§2) After various time intervals (15, 30 min, 1, 3, 6, and 10 hrs) post-injection, the blood samples were collected.
The rats were anesthetized by general inhalation of Isoflurane (Bimeta-MTC, Animal Health Inc. Cambridge, ON, Canada).
The plasma sample collection, extraction and HPLC analysis were carried out with the same matter as is described in example 8.
The topotecan lactone and topotecan carboxylate concentrations were calculated from the area under the peak (AUP) by using a calibration curve. The areas under the curves (AUC) were calculated by trapezoidal rule.

[3] = Stability of topotecan lactone in Pluronic P85 formulation (HPLC); assay type: physicochemical; conditions: 37° C., 0.3 mg/mL drug in PBS
Method: The formulation was prepared by mixing the stock solution containing 6 mg/mL of topotecan in 0.1% aqueous acetic acid with the 2.05% P85 solutions in PBS 1:20 (v/v), to obtain final compositions containing 0.3 mg/mL drug in 1% P85. The control formulation was prepared by simple dilution of topotecan stock solution with PBS 1:20 (v/v). The initial time of incubation (O hour) is the time of mixing of the respective stock solutions. The samples were incubated at 37° C. in thermostat. After various time intervals (1, 2, 3, 6, and 10 hrs) […], a sample of formulation was taken, diluted 1000 times with the HPLC mobile phase, and injected into HPLC. The HPLC conditions were following:
(§3) C18 reversed phase column 250×4.6 mm, Phenomenex C18 (2) Luna, 5 μm, column temperature 40° C., flow rate 1 mL/min, injection volume 20 μL, fluorescence detection at wavelengths λexcitation=381 nm, λemission=525 nm, mobile phase 94% of 2% triethylamine acetate pH 5.5/6% acetonitrile, run time 7 min

[4] = Solubility of topotecan in formulations with Pluronic P85; assay type: physicochemical; conditions: thermodynamic from solid, read-out: Topotecan concentration (solubility)
Method: Calibration. Fluorescence of 0.300 mL samples of topotecan solutions in methanol containing between 0.00006 and 0.001 mg/mL, in triplicates on Helma Quarz plate, was measured using Bio-Tek FL600 fluorescence plate reader with excitation filter wavelength/bandwidth 360/40 nm and emission filter 530/25 nm, sensitivity 70. The average fluorescence was fitted to a linear equation and gave:
where C=topotecan concentration [mg/mL].
Solubility. 1 mg topotecan samples, in triplicates, and 1 mL of the respective buffer or carrier solution, were incubated at room temperature with shaking for 1 hour. The samples were then filtered through Acrodisc CR, PTFE Syringe filter, 4 mm diameter, 0.45 μm pore size Gelman part No. 4472. The filtrate was diluted 100 times with methanol, and the final concentration of topotecan was determined by fluorescence measurement using the above-described calibration.

[5] = Partitioning of topotecan into Pluronic F127 micelles (fluorescence); assay type: physicochemical; conditions: Pluronic F127 micelles vs aqueous phase, carrier 0.003% to 10%, topotecan 0.010 mM, 2 hrs at 37° C.
Excerpt: Partitioning coefficient P describes the tendency of molecules of topotecan to stay inside micelles formed by the carrier: P=[x]m/[x]w, where [x]m is the actual concentration of topotecan inside micelles, [x]w is the actual concentration of topotecan in aqueous phase. The carrier investigated in this example is pluronic F127 (BASF). Partitioning coefficient was estimated using the fluorescence dependence on the concentration of the carrier (Kabanov A. et al. (1995), Macromolecules 28, 2303-2314), by fitting the measured fluorescence of topotecan to the equation:
(Imax−I0)/(−I0)−1=1/(θP)−1/P
θ=0.01v([carrier]−CMCcarrier), volume portion of the micellar phase
CMCcarrier=0.02%—critical micelle concentration for Pluronic 127
v—partial specific volume of micelles, approximately v=0.8
[…]. The plate was dried in vacuum. Solutions of the carrier were applied to wells, 300 microliter to each well. The concentration of carrier in solutions varied from 0.003% to 10%. The final concentration of topotecan was 0.010 mM. The plate was incubated 2 hrs at 37° C., and the fluorescence of the solution (excitation 360 nm, emission 530 nm) was measured using plate reader FL600 (BioTek).

[6] = Plasma pharmacokinetics of topotecan upon i.v. administration; assay type: in vivo; conditions: normal rats, dose of 15 mg/mL
Method: About 28 mg of topotecan were weighed and dissolved in 7 mL of isotonic solution. Topotecan was i.v. administered in normal rats at a dose of […].
as §2
The blood samples were collected from the jugular vein with the tube heparinized and kept immediately in ice for 5 to 10 min. Blood was immediately centrifuged, and plasma was separated. The plasma samples were immediately frozen in dry ice and stored at −80° C. until further use.
The aliquots (100 μL) of plasma samples were extracted with 400 μL of cold methanol. The supernatant was separated by centrifugation at 10000 RPM for 10 minutes and kept at −80° C. before HPLC analysis. The HPLC conditions were the following:
as §3
The topotecan lactone and topotecan carboxilate concentrations were calculated from the area under the peak (AUP) by using a calibration curve. The areas under the curves (AUC) were calculated by trapezoidal rule.

[7] = normal rats, oral gelatin capsules, 15 mg/kg, plasma

CC[C@@]1(O)C(=O)OCc2c1cc1n(c2=O)Cc2cc3c(CN(C)C)c(O)ccc3nc2-1 [Topotecan, topotecan]
AUC Ratio Oral Vs I.V. ([1]; Lac/Car AUC ratio, oral capsules 15 mg/kg vs i.v., rats): 2.0
Cmax Ratio Oral Vs I.V. ([1]; Lac/Car Cmax ratio, oral capsules 15 mg/kg vs i.v., rats): 2.0
Ratio AUC0-10 h Lac/Car [1, 7]: 0.6
Ratio Cmax Lac/Car [1, 7]: 0.8
AUC(0-t) ([1]; rat, normal rats, oral gelatin capsules, 15 mg/kg, plasma, read-out: AUC0-10 h, topotecan Lactone): 0.0528 µg·h/mL
Cmax ([1]; rat, normal rats, oral gelatin capsules, 15 mg/kg, plasma, read-out: Cmax, topotecan Lactone): 0.0098 µg/mL
Ratio AUC0-10 h Lac/Car [2]: 1.2
Ratio Cmax Lac/Car [2]: 1.2
AUC(0-t) ([2]; rat, read-out: AUC0-10 h, topotecan Lactone): 0.0805 µg·h/mL
Cmax ([2]; rat, read-out: Cmax, topotecan Lactone): 0.0203 µg/mL
topotecan lactone stability ([3]; 0 hour): 100.0 % of 0 h
topotecan lactone stability ([3]; 1 hour): 76.0 % of 0 h
topotecan lactone stability ([3]; 2 hours): 56.4 % of 0 h
topotecan lactone stability ([3]; 3 hours): 49.7 % of 0 h
topotecan lactone stability ([3]; 6 hours): 45.9 % of 0 h
topotecan lactone stability ([3]; 10 hours): 44.8 % of 0 h
solubility at 1 h ([4]; 1% Pluronic P85 in PBS, aqueous with cosolvent or surfactant or cyclodextrin, P85 1% in PBS pH 7.2, room temperature): 0.095 ± 0.005 mg/mL (≈ 225 µM)
solubility at 1 h ([4]; 3% Pluronic P85 in PBS, aqueous with cosolvent or surfactant or cyclodextrin, P85 3% in PBS pH 7.2, room temperature): 0.105 ± 0.005 mg/mL (≈ 249 µM)
solubility at 1 h ([4]; aqueous buffer, PBS pH 7.2, room temperature): 0.062 ± 0.005 mg/mL (≈ 147 µM)
partitioning coefficient P=[x]m/[x]w [5]: about 1
Ratio AUC0-10 h Lac/Car [6]: 0.3
Ratio Cmax Lac/Car [6]: 0.4
AUC(0-t) ([6]; rat, iv, read-out: AUC0-10 h, topotecan Lactone): 0.454 µg·h/mL
Cmax ([6]; rat, iv, read-out: Cmax, topotecan Lactone): 0.321 µg/mL
